Assay: Bulk density
Type: physicochemical
Conditions: docetaxel; room temperature
Procedure: The mass of the drug was measured to a nearest 0.1 mg, the volume was determined to the nearest 0.1 mL and the density calculated.

Bulk Density: 0.24 g/cm3
SMILES: CC(=O)O[C@@]12CO[C@@H]1C[C@H](O)[C@@]1(C)C(=O)[C@H](O)C3=C(C)[C@@H](OC(=O)[C@H](O)[C@@H](NC(=O)OC(C)(C)C)c4ccccc4)C[C@@](O)([C@@H](OC(=O)c4ccccc4)[C@H]21)C3(C)C [Docetaxel Raw Material, docetaxel]
